Results from patent publication US9388112B2, “Bisphenol derivatives and their use as androgen receptor activity modulators” (The University of British Columbia, priority 2010, dated 2016).

What follows are compounds tested against T1, androgen receptor (AR) (Homo sapiens, UniProt P10275, T878A) (assay: LNCaP PSA (6.1 kb)-luciferase assay (R1881-induced)). Details: FIG. 7A, 1 μM to 35 μM.
T1 construct: LNCaP cells express endogenous AR; endogenous in cells; host or cells: LNCaP cells
T1 sequence (P10275 1-920 T878A): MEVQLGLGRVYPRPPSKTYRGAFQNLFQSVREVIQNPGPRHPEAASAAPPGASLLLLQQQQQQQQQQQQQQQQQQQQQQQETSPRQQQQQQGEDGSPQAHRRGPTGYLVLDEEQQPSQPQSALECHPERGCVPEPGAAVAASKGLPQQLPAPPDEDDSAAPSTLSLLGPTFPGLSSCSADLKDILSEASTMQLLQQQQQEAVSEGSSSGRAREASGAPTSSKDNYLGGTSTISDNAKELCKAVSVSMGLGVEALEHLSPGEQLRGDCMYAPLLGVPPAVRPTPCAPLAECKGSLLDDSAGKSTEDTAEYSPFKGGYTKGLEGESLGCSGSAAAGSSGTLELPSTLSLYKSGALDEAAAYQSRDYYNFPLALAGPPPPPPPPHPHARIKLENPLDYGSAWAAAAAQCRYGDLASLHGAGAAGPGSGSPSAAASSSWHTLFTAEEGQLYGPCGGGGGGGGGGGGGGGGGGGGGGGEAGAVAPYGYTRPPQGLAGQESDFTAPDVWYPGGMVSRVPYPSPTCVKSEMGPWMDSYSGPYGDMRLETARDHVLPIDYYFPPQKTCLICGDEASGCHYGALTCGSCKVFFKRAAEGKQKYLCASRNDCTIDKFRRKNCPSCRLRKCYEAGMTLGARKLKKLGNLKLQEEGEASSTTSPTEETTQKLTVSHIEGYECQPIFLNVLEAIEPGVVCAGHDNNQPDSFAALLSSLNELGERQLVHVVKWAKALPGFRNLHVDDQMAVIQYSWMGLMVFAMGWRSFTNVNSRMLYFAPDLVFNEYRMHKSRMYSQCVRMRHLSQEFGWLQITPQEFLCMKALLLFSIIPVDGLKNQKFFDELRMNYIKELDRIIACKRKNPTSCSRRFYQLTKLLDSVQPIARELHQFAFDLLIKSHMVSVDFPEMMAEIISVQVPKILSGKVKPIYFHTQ
Type: cell-based
From the text: LNCaP cells were employed initially for all experiments because they are well-differentiated human prostate cancer cells in which ligand-independent activation of the AR by FSK has been characterized (Nazareth et al 1996 J. Biol. Chem. 271, 19900-19907; and Sadar 1999 J. Biol. Chem. 274, 7777-7783). LNCaP cells express endogenous AR and secrete prostate-specific antigen (PSA) (Horoszewicz et al 1983 Cancer Res. 43, 1809-1818). LNCaP cells can be grown either as monolayers in cell culture or as tumors in the well-characterized xenograft model that progresses to androgen independence in castrated hosts (Sato et al 1996 J. Steroid Biochem. Mol. Biol. 58, 139-146; Gleave et al 1991 Cancer Res. 51, 3753-3761; Sato et al 1997 Cancer Res. 57, 1584-1589; and Sadar et al 2002 Mol. Cancer Ther. 1(8), 629-637). […] Small molecules that specifically target the AR-NTD should have no effect on PC3 cells. This means that they should not alter the proliferation of PC3 cells if they specifically block the AR to mediate their inhibitory effects. R1881 was employed since it is stable and avoids problems associated with the labile physiological ligand dihydrotestosterone (DHT). Reporter specificity may be determined using several alternative reporter gene constructs. Some well characterized ARE-driven reporter gene constructs that have been used extensively are the PSA (6.1 kb) enhance/promoter which contains several AREs and is highly inducible by androgens as well as by FSK (Ueda et al 2002 A J. Biol. Chem. 277, 7076-7085) and the ARR3-thymidine kinase (tk)-luciferase, which is an artificial reporter construct that contains three tandem repeats of the rat probasin ARE1 and ARE2 regions upstream of a luciferase reporter (Snoek et al 1996 J. Steroid Biochem. Mol. Biol. 59, 243-250).
LNCaP cells were transiently cotransfected with PSA (6.1 kb)-luciferase (0.25 μg/well) in 24-well plates for 24 h prior to pre-treatment with compounds for 1 hour before the addition of synthetic androgen, R1881 (1 nM) to induce PSA production or vehicle. The total amount of plasmid DNA transfected was normalized to 0.75 μg/well by the addition of the empty vector. After 48 h of incubation with R1881, the cells were harvested, and relative luciferase activity was determined. Test compounds were added to the cells at various concentrations and activity for each treatment was normalized to the predicted maximal activity induction (in the absence of test compounds, vehicle only). Plotting of sigmoidal curves (Boltzmann Function) and IC50 calculations were done using OriginPro 8.1 Sofware (Northampton, Mass., USA).
Using the LNCaP PSA (6.1 kb)-luciferase assay described above, various compounds described herein were tested against DMSO and EPI-001 controls. In FIG. 1, a comparison is made between EPI-035 and DMSO and EPI-001 or EPI-026 from 1 μM to 10 μM. […] In FIGS. 3A and 3B, EPI-040 and EPI-051 are compared to DMSO and EPI-001 at 1 μM to 30 μM and 2.5 μM to 35 μM respectively. In FIGS. 4A and 4B, EPI-043 is compared to DMSO and EPI-001 at 5 μM to 35 μM 0.25 μM to 25 μM respectively.
Similarly, in FIG. 7B concentrations of EPI-6000, EPI-6001, EPI-6002, and EPI-6003 are shown at 12.5 μM and 25 μM as compared to the DMSO control.

Question: With OC(CCl)COc1ccccc1Cc1ccccc1OCC(O)CCl (stereo not drawn) [EPI-900] as the compound, how does the “dose response as compared to the DMSO control” value read?
Answer: Its value is “showed a dose response”.

Same assay, conditions: LNCaP PSA (6.1 kb)-luciferase assay, versus DMSO and EPI-001 controls

Question: Which “androgen receptor modulating activity” value does the source give for CC(C)(c1ccc(OCC(O)CCl)cc1)c1ccccc1OCC(O)CO (stereo not drawn) [EPI-6002] here?
Answer: Its value is “showed androgen receptor modulating activity”.

Question: C#CCOc1ccc(C(C)(C)c2ccc(OC[C@H](O)CCl)cc2)cc1 [EPI-047] was tested. Which “androgen receptor modulating activity” value did it give?
Answer: The value was “showed androgen receptor modulating activity”.

Question: How did the “androgen receptor modulating activity” value turn out when CC(C)(c1ccc(OCC(O)CCl)cc1)c1ccccc1OCC(O)CO (stereo not drawn) [EPI-6001] was run?
Answer: The value was “showed androgen receptor modulating activity”.

Question: How did the “androgen receptor modulating activity” value turn out when CC(C)(c1ccc(OCCO)cc1)c1ccc(OCCCCl)cc1 [EPI-035] was run?
Answer: The value was “showed androgen receptor modulating activity”.

Question: Which “androgen receptor modulating activity” value does the source give for CC(C)(c1ccc(O)cc1)c1ccc(OCCOCCOCCO)cc1 [EPI-040] here?
Answer: The value was “showed androgen receptor modulating activity”.

Question: For OC(CCl)COc1ccccc1Cc1ccccc1OCC(O)CCl (stereo not drawn) [EPI-900], which “androgen receptor modulating activity” value is on record?
Answer: Its value is “showed androgen receptor modulating activity”.

Question: With C#CCOc1ccc(C(C)(C)c2ccc(OCC(O)CO)cc2)cc1 (stereo not drawn) [EPI-051] as the compound, how does the “androgen receptor modulating activity” value read?
Answer: The value was “showed androgen receptor modulating activity”.

Question: Which “androgen receptor modulating activity” value does the source give for CC(C)(c1ccc(OCC(O)CCl)cc1)c1ccccc1OCC(O)CO (stereo not drawn) [EPI-6000] here?
Answer: The value was “showed androgen receptor modulating activity”.

Question: How did the “androgen receptor modulating activity” value turn out when CC(C)(c1ccc(OCCCCl)cc1)c1ccc(OCCCCl)cc1 [EPI-038] was run?
Answer: The value was “showed androgen receptor modulating activity”.

Question: With C#CCOc1ccc(C(C)(C)c2ccc(OC[C@@H](O)CCl)cc2)cc1 [EPI-046] as the compound, how does the “androgen receptor modulating activity” value read?
Answer: The value was “showed androgen receptor modulating activity”.

Question: With CC(C)(c1ccc(OCC(O)CCl)cc1)c1ccccc1OCC(O)CO (stereo not drawn) [EPI-6003] as the compound, how does the “androgen receptor modulating activity” value read?
Answer: The value was “showed androgen receptor modulating activity”.

Question: With CC(C)(c1ccc(OCCCCCCCl)cc1)c1ccc(OCCOCCOCCO)cc1 [EPI-043] as the compound, how does the “androgen receptor modulating activity” value read?
Answer: Its value is “showed androgen receptor modulating activity”.

Question: How did the “androgen receptor modulating activity” value turn out when CC(=O)OCCOc1ccc(C(C)(C)c2ccc(OCCCCl)cc2)cc1 [EPI-037] was run?
Answer: Its value is “showed androgen receptor modulating activity”.

Same assay, conditions: LNCaP cells transfected with PSA (6.1 kb)-luciferase, 1 h pre-treatment, R1881 1 nM, 48 h

Question: With OC(CCl)COc1ccccc1Cc1ccccc1OCC(O)CCl (centres unmarked) [drawing 878] as the compound, how does the “EXPERIMENTAL DATA (activity in the described assays)” value (shortened to “EXPERIMENTAL DATA”) read?
Answer: The value was “Active”.

Question: For CC(C)(c1ccc(OCCCCCCCl)cc1)c1ccc(OCCOCCOCCO)cc1 [drawing 874], which “EXPERIMENTAL DATA” value is on record?
Answer: The value was “Active”.

Question: How did the “EXPERIMENTAL DATA” value turn out when CC(C)(c1ccc(OCCCCl)cc1)c1ccc(OCCCCl)cc1 [drawing 871] was run?
Answer: The value was “Active”.

Question: Which “EXPERIMENTAL DATA” value does the source give for CC(C)(c1ccc(OCC(O)CCl)cc1)c1ccccc1OCC(O)CO (centres unmarked) [drawing 879] here?
Answer: Its value is “Active”.

Question: How did the “EXPERIMENTAL DATA” value turn out when C#CCOc1ccc(C(C)(C)c2ccc(OC[C@@H](O)CCl)cc2)cc1 [drawing 875] was run?
Answer: The value was “Active”.

Question: For CC(=O)OCCOc1ccc(C(C)(C)c2ccc(OCCCCl)cc2)cc1 [drawing 870], which “EXPERIMENTAL DATA” value is on record?
Answer: The value was “Active”.

Question: For C#CCOc1ccc(C(C)(C)c2ccc(OC[C@H](O)CCl)cc2)cc1 [drawing 876], which “EXPERIMENTAL DATA” value is on record?
Answer: The value was “Active”.

Question: With CC(C)(c1ccc(OCCO)cc1)c1ccc(OCCCCl)cc1 [drawing 869] as the compound, how does the “EXPERIMENTAL DATA” value read?
Answer: Its value is “Active”.

Question: For C#CCOc1ccc(C(C)(C)c2ccc(OCC(O)CO)cc2)cc1 (centres unmarked) [drawing 877], which “EXPERIMENTAL DATA” value is on record?
Answer: The value was “Active”.
